Laboratory results taken from EPA's ToxRefDB 2.

Assays:
[1] = test system: rat; details: Chronic toxicity, sprague dawley, Oral, Gavage/Intubation, dose end: 6 month, group: systemic
[2] = test system: rat; details: Sub-acute repeat dose toxicity, sprague dawley, Oral, Gavage/Intubation, dose end: 1 month, group: systemic
[3] = test system: rat; details: Prenatal developmental toxicity study, sprague dawley, Oral, Gavage/Intubation, dose end: 17 GD
[4] = test system: rat; details: Fertility (Segment I), sprague dawley, Oral, Gavage/Intubation, dose end: 7 GD
[5] = test system: rabbit; details: Prenatal developmental toxicity study; new zealand white; Oral; Gavage/Intubation; dose end: 19 GD; group: maternal; reproductive / reproductive performance / resorptions / resorptions + systemic / in life observation / body weight / body weight gain + …
[6] = test system: dog; details: Sub-acute repeat dose toxicity, beagle, Oral, Gavage/Intubation, dose end: 1 month, group: systemic
[7] = test system: dog; details: Chronic toxicity, beagle, Oral, Gavage/Intubation, dose end: 6 month, group: systemic
[8] = test system: rat; details: Fertility (Segment I), sprague dawley, Oral, Gavage/Intubation, dose end: 7 GD; remark: listed apart in the source
[9] = test system: rat; details: Prenatal developmental toxicity study, sprague dawley, Oral, Gavage/Intubation, dose end: 17 GD, group: maternal
[10] = test system: rat; details: Prenatal developmental toxicity study, sprague dawley, Oral, Gavage/Intubation, dose end: 17 GD; remark: listed apart in the source
[11] = test system: rabbit; details: Prenatal developmental toxicity study; new zealand white; Oral; Gavage/Intubation; dose end: 19 GD; group: maternal; reproductive / reproductive performance / postimplantation loss / postimplantation loss + reproductive / reproductive performance / …
[12] = systemic / pathology gross / uterus / dilatation
[13] = systemic / pathology microscopic / parathyroid gland / adenoma + systemic / clinical chemistry / alanine aminotransferase (alt/sgpt) / …
[14] = systemic / clinical chemistry / alanine aminotransferase (alt/sgpt) / alanine aminotransferase (alt/sgpt) + systemic / clinical chemistry / …
[15] = group: developmental, systemic / in life observation / body weight / fetal weight
[16] = group: maternal, reproductive / reproductive performance / aborted / aborted + reproductive / reproductive performance / gestation index / gestation index + …
[17] = group: maternal, reproductive / reproductive performance / estrous cycle / corpora lutea + reproductive / reproductive performance / implantations / …
[18] = group: parental, systemic / in life observation / body weight / body weight gain + systemic / in life observation / food consumption / food consumption
[19] = systemic / hematology / erythrocyte (rbc) count differential / erythrocyte (rbc) + systemic / hematology / hematocrit (hct) / hematocrit (…
[20] = systemic / in life observation / body weight / body weight + systemic / organ weight / thymus / absolute + systemic / organ weight / thymus…
[21] = group: maternal, reproductive / reproductive performance / estrous cycle / abnormal + reproductive / reproductive performance / estrous cycle / corpora lutea…
[22] = group: parental, systemic / in life observation / body weight / body weight + systemic / in life observation / body weight / body weight gain + systemic / in…
[23] = systemic / in life observation / body weight / body weight gain + systemic / in life observation / food consumption / food consumption
[24] = systemic / in life observation / body weight / body weight gain + systemic / in life observation / food consumption / food consumption + …
[25] = group: maternal, reproductive / reproductive performance / aborted / aborted + reproductive / reproductive performance / postimplantation loss / …

## CN(C)C(=O)NC1(c2ccccc2)CCN(CCC[C@]2(c3ccc(Cl)c(Cl)c3)CCCN(C(=O)c3ccccc3)C2)CC1
[1]; [12]
  LEL: 25 mg/kg/day
  NEL: < 25 mg/kg/day
[1]; [13]
  LOAEL: > 250 mg/kg/day
  NOAEL: ≥ 250 mg/kg/day
[2]; [14]
  LOAEL: > 250 mg/kg/day
  NEL: 25 mg/kg/day
  NOAEL: ≥ 250 mg/kg/day
[2]; systemic / pathology gross / mammary gland / [other]
  LEL: 75 mg/kg/day
[3]; [15]
  LEL: 200 mg/kg/day
  LOAEL: > 200 mg/kg/day
  NEL: 75 mg/kg/day
  NOAEL: ≥ 200 mg/kg/day
[3]; [16]
  LEL: 200 mg/kg/day
  LOAEL: 200 mg/kg/day
  NEL: 75 mg/kg/day
  NOAEL: 75 mg/kg/day
[4]; [17]
  LEL: 150 mg/kg/day
  LOAEL: > 150 mg/kg/day
  NEL: 75 mg/kg/day
  NOAEL: ≥ 150 mg/kg/day
[4]; [18]
  LEL: 150 mg/kg/day
  LOAEL: > 150 mg/kg/day
  NEL: 75 mg/kg/day
  NOAEL: ≥ 150 mg/kg/day
[5]
  LEL: 75 mg/kg/day
  LOAEL: > 75 mg/kg/day
  NEL: 25 mg/kg/day
  NOAEL: ≥ 75 mg/kg/day
[6]; [14]
  LOAEL: > 360 mg/kg/day
  NOAEL: ≥ 360 mg/kg/day
[6]; [19]
  LEL: 40 mg/kg/day
  NEL: < 40 mg/kg/day
[7]; [14]
  LOAEL: > 90 mg/kg/day
  NOAEL: ≥ 90 mg/kg/day
[7]; [20]
  LEL: 10 mg/kg/day
  NEL: < 10 mg/kg/day
[8]; [21]
  LOAEL: > 250 mg/kg/day
  NEL: 75 mg/kg/day
  NOAEL: ≥ 250 mg/kg/day
[8]; [17]
  LEL: 150 mg/kg/day
[8]; [22]
  LOAEL: > 250 mg/kg/day
  NOAEL: ≥ 250 mg/kg/day
[8]; [18]
  LEL: 75 mg/kg/day
  NEL: < 75 mg/kg/day
[9]; [23]
  LEL: 100 mg/kg/day
  LOAEL: 100 mg/kg/day
[9]; [24]
  NEL: 50 mg/kg/day
  NOAEL: 50 mg/kg/day
[10]; [15]
  LEL: 250 mg/kg/day
  LOAEL: > 250 mg/kg/day
  NEL: < 250 mg/kg/day
  NOAEL: ≥ 250 mg/kg/day
[10]; [25]
  LEL: 250 mg/kg/day
  LOAEL: > 250 mg/kg/day
  NEL: < 250 mg/kg/day
  NOAEL: ≥ 250 mg/kg/day
[11]
  LEL: 50 mg/kg/day
  LOAEL: > 100 mg/kg/day
  NEL: < 50 mg/kg/day
  NOAEL: ≥ 100 mg/kg/day
